pIC50, pKd: −log10 of the molar value. Activity calls are given as the source filed them. No cut-off for these calls is given here.
Tests used:
[1] = species on record: Homo sapiens; assay: Selectivity index, ratio of IC50 for inhibition of recombinant human full-length PARP-2 to IC50 for inhibition of recombinant human full-length PARP-1
[2] = system: SK-OV-3; assay: Cytotoxicity against human BRCA-1 deficient SK-OV-3 cells assessed as reduction in cell viability at 0.1 to 10 uM incubated for 48 hrs by MTT assay; type: functional, cell-based; conditions: dose 0.1-10 µM
[3] = molecular target: T1, Poly [ADP-ribose] polymerase 2 (Homo sapiens, UniProt Q9UGN5); assay: Inhibition of recombinant human full-length PARP-2 using biotinylated substrate
[4] = Acute toxicity in ICR mouse assessed as death at 1000 mg/kg, po administered only once at day 1 and measured after 5 to 8 days; type: organism-based; conditions: in vivo, time 5-8 day
[5] = system: A549; assay: Cytotoxicity against human A549 cells assessed as induction of CBP cytotoxicity incubated for 48 hrs in presence of CBP by MTT assay; type: functional, cell-based; conditions: dose 0.1-10 µM
[6] = molecular target: T2, Poly [ADP-ribose] polymerase 1 (Homo sapiens, UniProt P09874); assay: Inhibition of recombinant human full-length PARP-1 using biotinylated substrate
[7] = system: A549; assay: Cytotoxicity against human A549 cells assessed as reduction in cell viability at 0.1 to 10 uM incubated for 48 hrs by MTT assay; type: functional, cell-based; conditions: dose 0.1-10 µM
[8] = Acute toxicity in ICR mouse assessed as change in body weight at 1000 mg/kg, po administered only once at day 1 and measured every two days for 14 days; type: organism-based; conditions: in vivo, 336 h, time 14 day
[9] = Renal toxicity in ICR mouse assessed as effect on BUN level at 1000 mg/kg, po administered only once at day 1 and measured every two days for 14 days (reference value: 8.9 +/- 0.9 mmol/L); type: organism-based; conditions: in vivo, 336 h, time 14 day
[10] = molecular target: T1, Poly [ADP-ribose] polymerase 2; assay: Binding affinity to recombinant human PARP-2 by SPR analysis
[11] = Stability in rat plasma assessed as compound remaining after 0.5 hrs; type: ADME, cell-free; conditions: read-out: Stabilty
[12] = molecular target: CYP3A4 (Homo sapiens, UniProt P08684); assay: Inhibition of CYP3A4 (unknown origin) at 10 uM incubated for 10 to 30 mins in presence of NADPH regeneration system by microplate analysis relative to control; type: ADME; conditions: time 10-30 min
[13] = molecular target: T2, Poly [ADP-ribose] polymerase 1; assay: Binding affinity to recombinant human PARP-1 by SPR analysis
[14] = Stability in rat plasma assessed as compound remaining after 4 hrs; type: ADME, cell-free; conditions: read-out: Stabilty
[15] = Acute toxicity in ICR mouse assessed as change in blood routine at 1000 mg/kg, po administered only once at day 1 and measured every two days for 14 days; type: organism-based; conditions: in vivo, 336 h, time 14 day
[16] = molecular target: T3, CYP1A2 (Homo sapiens, UniProt P05177); assay: Inhibition of CYP1A2 (unknown origin) at 10 uM incubated for 10 to 30 mins in presence of NADPH regeneration system by microplate analysis relative to control; type: ADME; conditions: time 10-30 min
T3 sequence (P05177 whole entry): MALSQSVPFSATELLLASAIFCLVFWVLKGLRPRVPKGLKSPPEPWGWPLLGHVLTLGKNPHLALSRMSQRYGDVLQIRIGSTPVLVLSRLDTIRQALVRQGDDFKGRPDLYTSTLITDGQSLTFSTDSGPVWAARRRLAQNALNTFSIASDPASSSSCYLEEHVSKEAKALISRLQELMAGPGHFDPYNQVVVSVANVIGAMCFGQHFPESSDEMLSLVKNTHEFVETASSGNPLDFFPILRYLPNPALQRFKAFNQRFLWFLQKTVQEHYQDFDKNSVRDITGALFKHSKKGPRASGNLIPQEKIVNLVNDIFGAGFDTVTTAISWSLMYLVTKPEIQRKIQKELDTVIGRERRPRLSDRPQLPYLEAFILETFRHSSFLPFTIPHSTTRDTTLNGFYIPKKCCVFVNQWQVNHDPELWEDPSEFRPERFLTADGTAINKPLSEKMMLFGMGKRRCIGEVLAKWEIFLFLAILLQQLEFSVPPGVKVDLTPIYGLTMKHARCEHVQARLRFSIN

[17] = Hepatotoxicity in ICR mouse assessed as effect on AST level at 1000 mg/kg, po administered only once at day 1 and measured every two days for 14 days (reference value: 61.5 +/- 3.7 U/L); type: toxicity, organism-based; conditions: in vivo, 336 h, time 14 day
[18] = molecular target: CYP2C9 (Homo sapiens, UniProt P11712); assay: Inhibition of CYP2C9 (unknown origin) at 10 uM incubated for 10 to 30 mins in presence of NADPH regeneration system by microplate analysis relative to control; type: ADME; conditions: time 10-30 min
[19] = molecular target: CYP2D6 (Homo sapiens, UniProt P10635); assay: Inhibition of CYP2D6 (unknown origin) at 10 uM incubated for 10 to 30 mins in presence of NADPH regeneration system by microplate analysis relative to control; type: ADME; conditions: time 10-30 min
[20] = Hepatotoxicity in ICR mouse assessed as effect on ALT level at 1000 mg/kg, po administered only once at day 1 and measured every two days for 14 days (reference value: 28.6 +/- 6.9 U/L); type: toxicity, organism-based; conditions: in vivo, 336 h, time 14 day
[21] = molecular target: CYP2C19 (Homo sapiens, UniProt P33261); assay: Inhibition of CYP2C19 (unknown origin) at 10 uM incubated for 10 to 30 mins in presence of NADPH regeneration system by microplate analysis relative to control; type: ADME; conditions: time 10-30 min
[22] = Acute toxicity in ICR mouse assessed as effect on spleen at 1000 mg/kg, po administered only once at day 1 and measured every two days for 14 days; type: organism-based; conditions: in vivo, 336 h, time 14 day
[23] = Acute toxicity in ICR mouse assessed as effect on kidney at 1000 mg/kg, po administered only once at day 1 and measured every two days for 14 days; type: organism-based; conditions: in vivo, 336 h, time 14 day

T1 sequence (Q9UGN5 whole entry): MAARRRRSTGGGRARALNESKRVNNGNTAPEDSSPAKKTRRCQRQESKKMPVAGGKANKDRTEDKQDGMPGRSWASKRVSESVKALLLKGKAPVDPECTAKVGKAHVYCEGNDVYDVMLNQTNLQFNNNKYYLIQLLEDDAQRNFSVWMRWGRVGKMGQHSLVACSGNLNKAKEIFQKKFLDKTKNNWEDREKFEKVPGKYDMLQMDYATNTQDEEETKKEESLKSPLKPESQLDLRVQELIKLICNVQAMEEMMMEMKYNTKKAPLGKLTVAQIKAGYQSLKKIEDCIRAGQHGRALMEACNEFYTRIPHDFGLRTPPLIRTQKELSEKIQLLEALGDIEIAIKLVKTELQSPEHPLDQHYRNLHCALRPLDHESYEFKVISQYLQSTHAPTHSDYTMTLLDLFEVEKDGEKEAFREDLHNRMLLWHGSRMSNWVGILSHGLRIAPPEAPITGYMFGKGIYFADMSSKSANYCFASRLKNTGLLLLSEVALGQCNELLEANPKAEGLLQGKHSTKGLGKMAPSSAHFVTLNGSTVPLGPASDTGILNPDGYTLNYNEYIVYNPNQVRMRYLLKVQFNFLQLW
T2 sequence (P09874 whole entry): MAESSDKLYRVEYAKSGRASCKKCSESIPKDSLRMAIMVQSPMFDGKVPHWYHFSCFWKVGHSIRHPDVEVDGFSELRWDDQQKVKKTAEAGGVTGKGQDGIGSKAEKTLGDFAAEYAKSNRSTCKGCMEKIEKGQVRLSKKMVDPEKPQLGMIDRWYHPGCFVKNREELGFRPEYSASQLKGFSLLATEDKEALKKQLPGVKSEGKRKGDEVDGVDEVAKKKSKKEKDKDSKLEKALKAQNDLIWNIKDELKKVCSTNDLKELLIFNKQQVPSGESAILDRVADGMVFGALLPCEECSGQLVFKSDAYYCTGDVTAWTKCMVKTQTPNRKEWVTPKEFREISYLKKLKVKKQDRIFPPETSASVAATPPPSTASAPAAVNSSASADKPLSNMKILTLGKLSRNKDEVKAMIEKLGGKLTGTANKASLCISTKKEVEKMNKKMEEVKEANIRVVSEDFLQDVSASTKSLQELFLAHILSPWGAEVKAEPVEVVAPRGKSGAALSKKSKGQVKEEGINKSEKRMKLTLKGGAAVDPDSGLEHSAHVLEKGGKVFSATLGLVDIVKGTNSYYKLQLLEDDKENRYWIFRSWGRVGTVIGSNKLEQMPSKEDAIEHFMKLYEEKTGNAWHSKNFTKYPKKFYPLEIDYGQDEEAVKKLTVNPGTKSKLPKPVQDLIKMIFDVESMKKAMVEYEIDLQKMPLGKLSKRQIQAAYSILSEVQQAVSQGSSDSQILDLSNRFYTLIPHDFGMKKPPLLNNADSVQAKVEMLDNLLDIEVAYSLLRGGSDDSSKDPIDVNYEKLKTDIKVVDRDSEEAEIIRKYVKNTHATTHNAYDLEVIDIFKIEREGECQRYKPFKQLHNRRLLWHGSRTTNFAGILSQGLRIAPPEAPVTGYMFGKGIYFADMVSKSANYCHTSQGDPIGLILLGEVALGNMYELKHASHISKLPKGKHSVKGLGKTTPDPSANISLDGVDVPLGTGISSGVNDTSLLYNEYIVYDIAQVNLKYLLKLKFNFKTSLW
Chain of CYP2C9 (P11712 whole entry): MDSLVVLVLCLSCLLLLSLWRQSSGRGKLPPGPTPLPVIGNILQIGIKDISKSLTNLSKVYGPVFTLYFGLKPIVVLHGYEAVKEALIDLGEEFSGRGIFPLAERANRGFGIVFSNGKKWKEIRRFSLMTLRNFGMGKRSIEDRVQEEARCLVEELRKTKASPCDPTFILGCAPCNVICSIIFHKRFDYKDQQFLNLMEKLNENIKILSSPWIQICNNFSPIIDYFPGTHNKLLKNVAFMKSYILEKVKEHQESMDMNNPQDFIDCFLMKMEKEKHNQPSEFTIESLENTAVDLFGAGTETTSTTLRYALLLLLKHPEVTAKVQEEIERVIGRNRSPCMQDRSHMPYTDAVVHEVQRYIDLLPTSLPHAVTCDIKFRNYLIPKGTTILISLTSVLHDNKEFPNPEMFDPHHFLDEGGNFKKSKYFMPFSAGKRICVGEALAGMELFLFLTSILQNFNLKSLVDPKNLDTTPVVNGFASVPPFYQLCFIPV
Chain of CYP2D6 (P10635 whole entry): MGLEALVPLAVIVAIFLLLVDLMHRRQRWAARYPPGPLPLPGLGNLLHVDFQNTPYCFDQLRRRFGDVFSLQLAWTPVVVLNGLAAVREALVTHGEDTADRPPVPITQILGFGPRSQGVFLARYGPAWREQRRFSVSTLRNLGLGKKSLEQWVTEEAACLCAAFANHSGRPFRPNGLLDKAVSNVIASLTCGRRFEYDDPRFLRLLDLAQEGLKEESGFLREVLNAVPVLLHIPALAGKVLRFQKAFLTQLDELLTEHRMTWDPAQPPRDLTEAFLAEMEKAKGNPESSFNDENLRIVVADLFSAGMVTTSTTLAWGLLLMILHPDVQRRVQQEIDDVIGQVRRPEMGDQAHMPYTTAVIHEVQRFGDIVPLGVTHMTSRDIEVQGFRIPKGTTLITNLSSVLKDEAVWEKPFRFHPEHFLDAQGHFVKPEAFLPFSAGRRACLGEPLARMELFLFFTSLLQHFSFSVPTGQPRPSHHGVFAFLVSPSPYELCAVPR
Chain of CYP2C19 (P33261 whole entry): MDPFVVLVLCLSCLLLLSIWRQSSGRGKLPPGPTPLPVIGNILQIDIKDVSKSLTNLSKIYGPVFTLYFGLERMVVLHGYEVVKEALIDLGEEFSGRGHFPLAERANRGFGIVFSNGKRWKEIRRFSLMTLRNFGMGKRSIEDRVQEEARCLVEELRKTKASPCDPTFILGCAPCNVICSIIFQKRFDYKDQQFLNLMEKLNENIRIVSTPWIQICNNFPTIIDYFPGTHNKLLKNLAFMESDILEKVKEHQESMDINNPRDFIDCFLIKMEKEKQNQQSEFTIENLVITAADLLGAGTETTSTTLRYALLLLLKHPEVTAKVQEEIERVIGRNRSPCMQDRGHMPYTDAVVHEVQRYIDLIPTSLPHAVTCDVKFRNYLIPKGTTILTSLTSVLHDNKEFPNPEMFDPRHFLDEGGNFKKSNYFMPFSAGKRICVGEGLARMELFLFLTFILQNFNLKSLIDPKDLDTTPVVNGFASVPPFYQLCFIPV
Chain of CYP3A4 (P08684 whole entry): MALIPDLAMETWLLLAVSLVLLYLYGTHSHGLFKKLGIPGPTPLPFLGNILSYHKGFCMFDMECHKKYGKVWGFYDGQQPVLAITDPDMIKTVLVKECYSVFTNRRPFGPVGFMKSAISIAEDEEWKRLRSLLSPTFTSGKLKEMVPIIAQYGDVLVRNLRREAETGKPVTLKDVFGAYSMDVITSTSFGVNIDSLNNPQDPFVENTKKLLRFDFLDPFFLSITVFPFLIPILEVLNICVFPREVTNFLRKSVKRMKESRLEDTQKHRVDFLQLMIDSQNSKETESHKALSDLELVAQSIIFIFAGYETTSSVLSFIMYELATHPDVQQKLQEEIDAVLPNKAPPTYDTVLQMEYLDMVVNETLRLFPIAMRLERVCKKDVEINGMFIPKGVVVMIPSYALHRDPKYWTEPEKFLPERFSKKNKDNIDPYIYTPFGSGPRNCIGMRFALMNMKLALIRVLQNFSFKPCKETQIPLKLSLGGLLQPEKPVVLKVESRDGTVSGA

Row | Compound | Ratio IC50 [1] | Activity [2] | pIC50 [3] | Activity [5] | pIC50 [6] | Activity [7] | Activity [8] | Activity [9] [mmol/L] | Activity [15] | Activity [17] [U/L] | Activity [20] [U/L] | further results
1 | O=c1cc(-c2ccc(O)cc2)oc2c(CN3CCN(Cc4ccco4)CC3)c(O)cc(O)c12 | 72.6 | Active | 5.89 | Dose-Dependent Effect | 7.75 | inactive | – | – | – | – | – | Activity [4]: Toxic
2 | O=c1cc(-c2ccc(O)cc2)oc2c(CN3CCN(Cc4cccs4)CC3)c(O)cc(O)c12 | – | – | 6.05 | – | 7.83 | – | Non-Toxic | 9 | Non-Toxic | 64.1 | 27.6 | pKd [10]: 6.22; remaining at 0.5 h [11]: 83.4%; inhibition at 10 µM [12]: 93.4%; pKd [13]: 7.26; remaining at 4 h [14]: 46.2%; inhibition at 10 µM [16]: 85.2%; inhibition at 10 µM [18]: 94.7%; inhibition at 10 µM [19]: 92.7%; inhibition at 10 µM [21]: 70.4%
3 | O=C(c1ccco1)N1CCN(Cc2c(O)cc(O)c3c(=O)cc(-c4ccc(O)cc4)oc23)CC1 | 68.3 | Active | 6.10 | Dose-Dependent Effect | 7.86 | inactive | Non-Toxic | 9.1 | Non-Toxic | 79.3 | 31.2 | Activity [22]: Toxic; Activity [23]: Toxic
